PubChem BioAssay AID248 (DTP/NCI, 2004)
Where “and” joins values, the source holds several entries; their conditions need not be identical. Equal entries are not always repeated. Toxic doses and inconclusive results are not listed. Rule as the data show it: active = T/C of 150% or more; inactive = T/C below 125%.

System: L1210 leukemia ip in BDF1 mice, survival T/C
Experiment: NCI In Vivo Anticancer Drug Screen. Data for tumor model L1210 Leukemia (intraperitoneal) in B6D2F1 (BDF1) mice
Conditions: endpoint: mean survival time, higher = longer survival
How it was run: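 Survival endpoint. Drug-treated group vs vehicle group, expressed as T divided by C. Tumor passaged by transplantation.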

[1] = dose: 100.0 mg/kg/injection, schedule: Q04DX002 (ip), vehicle: Klucel (hydroxypropylcellulose) (HPC)
[2] = dose: 200.0 mg/kg/injection, schedule: Q04DX002 (ip), vehicle: Klucel (hydroxypropylcellulose) (HPC)
[3] = dose: 400.0 mg/kg/injection, schedule: Q04DX002 (ip), vehicle: Klucel (hydroxypropylcellulose) (HPC)
[4] = dose: 100.0 mg/kg/injection, schedule: Q01DX001 (ip), vehicle: Klucel (hydroxypropylcellulose) (HPC)
[5] = dose: 200.0 mg/kg/injection, schedule: Q01DX001 (ip), vehicle: Klucel (hydroxypropylcellulose) (HPC)
[6] = dose: 400.0 mg/kg/injection, schedule: Q01DX001 (ip), vehicle: Klucel (hydroxypropylcellulose) (HPC)
[7] = dose: 100.0 mg/kg/injection, schedule: Q01DX009 (ip), vehicle: Klucel (hydroxypropylcellulose) (HPC)
[8] = dose: 200.0 mg/kg/injection, schedule: Q01DX009 (ip), vehicle: Klucel (hydroxypropylcellulose) (HPC)
[9] = dose: 400.0 mg/kg/injection, schedule: Q01DX009 (ip), vehicle: Klucel (hydroxypropylcellulose) (HPC)
[10] = dose: 100.0 mg/kg/injection, schedule: Q01DX009 (ip), vehicle: saline with Tween-80
[11] = dose: 200.0 mg/kg/injection, schedule: Q01DX009 (ip), vehicle: saline with Tween-80
[12] = dose: 100.0 mg/kg/injection, schedule: Q04DX003 (ip), vehicle: saline with Tween-80
[13] = dose: 200.0 mg/kg/injection, schedule: Q04DX003 (ip), vehicle: saline with Tween-80
[14] = dose: 400.0 mg/kg/injection, schedule: Q04DX003 (ip), vehicle: saline with Tween-80
[15] = dose: 100.0 mg/kg/injection, schedule: Q04DX003 (ip), vehicle: Klucel (hydroxypropylcellulose) (HPC)
[16] = dose: 200.0 mg/kg/injection, schedule: Q04DX003 (ip), vehicle: Klucel (hydroxypropylcellulose) (HPC)
[17] = dose: 400.0 mg/kg/injection, schedule: Q04DX003 (ip), vehicle: Klucel (hydroxypropylcellulose) (HPC)

Measured: T/C

O=[N+]([O-])c1ccc2c(c1)-c1ccccc1C2Br (stereo unspecified)
inactive: dose: 100.0 mg/kg/injection, schedule: Q01DX005 (ip), vehicle: Klucel (hydroxypropylcellulose) (HPC) 88 % of control | [1] 117 % of control | [2] 101 % of control | dose: 400.0 mg/kg/injection, schedule: Q01DX005 (ip), vehicle: Klucel (hydroxypropylcellulose) (HPC) 102 % of control | [3] 90 % of control

O=c1c(N=Nc2ccc(Br)cc2)c(O)n(-c2ccccc2)c(=S)n1-c1ccccc1
inactive: [4] 105 % of control | [5] 102 % of control | [6] 102 % of control

O=C(O)Cc1ccc2c(c1)OCO2.[Ag]
inactive: dose: 9.38 mg/kg/injection, schedule: Q01DX001 (ip), vehicle: steriod suspending solution 95 % of control | dose: 18.75 mg/kg/injection, schedule: Q01DX001 (ip), vehicle: steriod suspending solution 94 % of control | dose: 37.5 mg/kg/injection, schedule: Q01DX001 (ip), vehicle: steriod suspending solution 92 % of control

CN1CN(c2ccccc2)C2(CCN(C3(c4ccccc4)CCCCC3)CC2)C1=O
inactive: dose: 50.0 mg/kg/injection, schedule: Q01DX001 (ip), vehicle: saline 102 % of control | dose: 100.0 mg/kg/injection, schedule: Q01DX001 (ip), vehicle: saline 92 % of control | dose: 200.0 mg/kg/injection, schedule: Q01DX001 (ip), vehicle: saline 94 % of control

NC(=Nc1ccc([N+](=O)[O-])cc1)c1ccc(C(N)=Nc2ccc([N+](=O)[O-])cc2)cc1
inactive: dose: 6.25 mg/kg/injection, schedule: Q01DX015 (ip), vehicle: methylcellulose (MC) 102 % of control | dose: 12.5 mg/kg/injection, schedule: Q01DX015 (ip), vehicle: methylcellulose (MC) 100 % of control | dose: 25.0 mg/kg/injection, schedule: Q01DX015 (ip), vehicle: methylcellulose (MC) 96 % of control | dose: 50.0 mg/kg/injection, schedule: Q01DX015 (ip), vehicle: methylcellulose (MC) 93 % of control | dose: 62.5 mg/kg/injection, schedule: Q01DX015 (ip), vehicle: methylcellulose (MC) 90 % of control

Cc1nc(NN)c(C(N)=O)nc1C
inactive: dose: 25.0 mg/kg/injection, schedule: Q01DX009 (ip), vehicle: saline 98 % of control | dose: 25.0 mg/kg/injection, schedule: Q04DX003 (ip), vehicle: saline 101 % of control | dose: 50.0 mg/kg/injection, schedule: Q01DX009 (ip), vehicle: saline 96 % of control | dose: 50.0 mg/kg/injection, schedule: Q04DX003 (ip), vehicle: saline 103 % of control | dose: 100.0 mg/kg/injection, schedule: Q04DX003 (ip), vehicle: saline 104 % of control

CN(CCCl)c1ccc(C2N(Cc3ccccc3)c3ccccc3N2Cc2ccccc2)cc1
inactive: dose: 6.2 mg/kg/injection, schedule: Q01DX001 (ip), vehicle: carboxymethylcellulose (CMC) 94 % of control | dose: 12.5 mg/kg/injection, schedule: Q01DX001 (ip), vehicle: carboxymethylcellulose (CMC) 103 % of control

CCN(CC)C(=O)c1ccccc1C(=O)O
inactive: [7] 94 % of control | [8] 92 % of control | [9] 92 % of control

CCCCCCCCCC(C)CCCC (stereo unspecified)
inactive: dose: 100.0 mg/kg/injection, schedule: Q01DX001 (ip), vehicle: saline with Tween-80 86 % of control | dose: 200.0 mg/kg/injection, schedule: Q01DX001 (ip), vehicle: saline with Tween-80 96 % of control

CCOC(=O)CNc1cccc(C(F)(F)F)c1
inactive: dose: 100.0 mg/kg/injection, schedule: Q01DX009 (ip), vehicle: carboxymethylcellulose (CMC) 98 % of control | [1] 100 % of control and 105 % of control | dose: 200.0 mg/kg/injection, schedule: Q01DX009 (ip), vehicle: carboxymethylcellulose (CMC) 93 % of control | [2] 109 % of control and 114 % of control | [3] 98 % of control

Cc1cc(C2=NCCN2)ccc1NC(=O)c1ccc(C(=O)Nc2ccc(C3=NCCN3)cc2C)cc1
inactive: dose: 15.0 mg/kg/injection, schedule: Q01DX Z (ip), vehicle: saline 100 % of control | dose: 30.0 mg/kg/injection, schedule: Q01DX Z (ip), vehicle: saline 106 % of control | dose: 60.0 mg/kg/injection, schedule: Q01DX Z (ip), vehicle: saline 110 % of control

O=C(O)CCCCCCCCCCN1C(=O)c2cccc([N+](=O)[O-])c2C1=O
inactive: dose: 87.5 mg/kg/injection, schedule: Q04DX003 (ip), vehicle: carboxymethylcellulose (CMC) 101 % of control | dose: 175.0 mg/kg/injection, schedule: Q04DX003 (ip), vehicle: carboxymethylcellulose (CMC) 97 % of control | dose: 350.0 mg/kg/injection, schedule: Q04DX003 (ip), vehicle: carboxymethylcellulose (CMC) 87 % of control

CN(C)P1(=O)N(c2ccc(Cl)cc2)P(=O)(N(C)C)N1c1ccc(Cl)cc1 (stereo unspecified)
inactive: dose: 100.0 mg/kg/injection, schedule: Q04DX002 (ip), vehicle: saline 96 % of control | dose: 200.0 mg/kg/injection, schedule: Q04DX002 (ip), vehicle: saline 100 % of control | dose: 400.0 mg/kg/injection, schedule: Q04DX002 (ip), vehicle: saline 93 % of control

Cc1cccc(Cl)c1NC(=O)Nc1cc([N+](=O)[O-])ccc1O
inactive: dose: 25.0 mg/kg/injection, schedule: Q01DX009 (ip), vehicle: Klucel (hydroxypropylcellulose) (HPC) 91 % of control | dose: 50.0 mg/kg/injection, schedule: Q01DX009 (ip), vehicle: Klucel (hydroxypropylcellulose) (HPC) 91 % of control | [7] 96 % of control and 87 % of control | [8] 91 % of control | [9] 88 % of control

CCOC(=O)CNCC(O)C(Cl)(Cl)Cl (stereo unspecified)
inactive: [10] 92 % of control | [11] 86 % of control

OC1(CBr)CCCCC1
inactive: [12] 102 % of control | [13] 98 % of control | [14] 95 % of control

CCN(CC)C(=O)c1c(Cl)n(C)c2ccccc12
inactive: dose: 12.5 mg/kg/injection, schedule: Q04DX003 (ip), vehicle: Klucel (hydroxypropylcellulose) (HPC) 95 % of control | dose: 25.0 mg/kg/injection, schedule: Q04DX003 (ip), vehicle: Klucel (hydroxypropylcellulose) (HPC) 104 % of control | dose: 50.0 mg/kg/injection, schedule: Q04DX003 (ip), vehicle: Klucel (hydroxypropylcellulose) (HPC) 104 % of control

CC(=O)c1ccc(C(O)C(CO)NC(=O)C(Cl)Cl)cc1 (stereo unspecified)
inactive: [15] 100 % of control | [16] 103 % of control | [17] 103 % of control

CCOC(CN=CC1CCC=CO1)OCC (stereo unspecified)
inactive: [12] 91 % of control | [13] 96 % of control | [14] 95 % of control

CC(C)(Oc1ccc(Cl)cc1)C(=O)NCCCCCC(=O)O
inactive: dose: 50.0 mg/kg/injection, schedule: Q01DX009 (ip), vehicle: saline with Tween-80 98 % of control | [10] 98 % of control | [11] 95 % of control

CCOC(=O)COc1ccc([N+](=O)[O-])cc1
inactive: [4] 112 % of control | [7] 97 % of control and 98 % of control | [1] 96 % of control and 101 % of control | [15] 106 % of control | [5] 98 % of control | [8] 95 % of control and 105 % of control | [2] 96 % of control and 103 % of control | [16] 100 % of control | [6] 106 % of control | [9] 93 % of control and 101 % of control | [3] 92 % of control and 102 % of control | [17] 101 % of control

COc1ccc2c3c([nH]c2c1)-c1ccccc1SC3
inactive: dose: 100.0 mg/kg/injection, schedule: Q04DX003 (ip), vehicle: acetone 101 % of control | dose: 200.0 mg/kg/injection, schedule: Q04DX003 (ip), vehicle: acetone 106 % of control | dose: 400.0 mg/kg/injection, schedule: Q04DX003 (ip), vehicle: acetone 101 % of control

Cc1cc(N(CCOS(C)(=O)=O)CCOS(C)(=O)=O)ccc1C=Nc1ccc(C(=O)O)c(O)c1
inactive: dose: 4.0 mg/kg/injection, schedule: Q01DX009 (ip), vehicle: saline with Tween-80 111 % of control | dose: 6.0 mg/kg/injection, schedule: Q01DX009 (ip), vehicle: saline with Tween-80 119 % of control

O=C(Nc1ccccc1)N1CC12CCCCC2
inactive: [15] 104 % of control | [8] 98 % of control | [16] 110 % of control | [9] 95 % of control | [17] 100 % of control

OC1(CCCc2ccccc2)CCNCC1
inactive: dose: 75.0 mg/kg/injection, schedule: Q01DX001 (ip), vehicle: saline 104 % of control | dose: 150.0 mg/kg/injection, schedule: Q01DX001 (ip), vehicle: saline 110 % of control
